Measurements taken from patent US20130096163A1, “Injectable dosage form of flupirtine” (AWD.PHARMA GMBH & CO. KG, priority 2010, published 2013).
Where two headings read alike, the source gives them in different places.

Experiment: Solubility of flupirtine salts in water (stirring a suspension, filtration, HPLC-UV)
Type: physicochemical
Description: The solubility of the salt used is determined by stirring a suspension of a defined quantity of the corresponding salt for 30 minutes in a closed container in fully desalinated water at 25° C. The undissolved portion of the salt is filtered off, the filtrate is diluted to a suitable concentration range, and the flupirtine concentration of the solution determined using HPLC-UV (high performance liquid chromatography with UV-detection).
In a preferred embodiment of the invention, the flupirtine salt contained in the lyophilisate is selected from flupirtine mesilate, flupirtine besilate and/or flupirtine phosphate. Table 1shows the respective solubility of each of these flupirtine salts in water at 25° C. The solubility has been determined as described above.

## CCOC(=O)Nc1ccc(NCc2ccc(F)cc2)nc1N.O=S(=O)(O)c1ccccc1 [Flupirtine besilate]
In fully desalinated water at 25° C., suspension stirred 30 minutes, filtrate by HPLC-UV
  Solubility: 2.8 mg/mL

## Flupirtine mesilate
  Solubility: 16.8 mg/mL

## Flupirtine phosphate
  Solubility: 13.6 mg/mL
